Among the data in patent US9868737B2, “Pyridino[1,2-A]pyrimidone analogue used as MTOR/P13K inhibitor” (CISEN PHARMACEUTICAL CO., LTD., priority 2014, dated 2018) are inhibition and IC50 values, retold here.

Read-outs that look alike come from different tables or passages of the source. Where only a bound is given, the exact number is not on record here.

This experiment deals with MCF-7 cells. Nature of the experiment: In vitro test of cell activity (MCF-7 cells, insulin stimulation, ELISA-One fluorescence). The class given is cell-based. The note with it: Homo sapiens, MCF7, MCF-7 cells; for inhibition at 0.5 µM: conc. 0.5 μM; for inhibition at 0.25 µM: conc. 0.25 μM. As for the experimental part:
Example In Vitro Tests of Cell Activities Experimental Steps and Methods:
1) MCF-7 cells were inoculated at the density of 2.5×10^4 cells/well into 96-well plates (the culture medium used should be a complete culture medium containing 10% FBS).
2) On the next day, the medium in each well was drawn out. A certain concentration (preliminary screening) or a series of concentration (IC50 test) of compounds were dissolved in a culture medium without serum and added to the 96-well plates to culture cells for 2 hours.
3) Insulin was dissolved in a culture medium without serum, added to the cultured cells and incubated for 30 minutes, wherein the final concentration of insulin was […].
4) A lysis solution was prepared according to the following method during the waiting period for the reaction:
a) Enhancer solution was removed from the refrigerator to melt in advance.
b) Enhancer solution was diluted 10 times with the 5× Lysis Buffer to give a concentrated lysis solution.
c) The concentrated lysis solution was diluted 5 times with double distilled water to give the lysis solution.
5) The medium in each well was completely removed and each well was quickly rinsed with PBS once.
6) 150 μl of the freshly prepared lysis solution was added to each well and shaked at room temperature for 10 minutes.
7) After confirming that all cells were detached, the lysis solution together with the cell fragments was transferred into a 1.5 ml tube.
8) The tube was shaked on vortes mixer to make the lysis solution and cells mix completely and then the mixture was centrifugated at 4° C. under 12000 g for 10 minutes.
9) The number of strips of ELISA-one micro-well plate that is required was calculated. The needless strips were removed from the frame, put back into the storage bag and sealed. Before the strips of micro-well plate were used, 200 μl of double distilled water was used to rinse each well to remove preservative.
10) 50 μl of antibody mixture was added to each well. (The antibody mixture solution was prepared by mixing the medium antibody reagent and the enzyme labeled antibody reagent with an equal proportion. The preparation of antibody mixture didn't need vortex.)
11) 25 μl of cell lysates was added to each well of ELISA-One micro-well plate. The micro-well plate was covered with adhesive sealing film and incubated on a micro-well plate oscillation instrument at room temperature for 1 hour.
12) Each well was rinsed with 150 μl of 1× rinsing buffer 3 times. After the last rinsing, the rinsing buffer in the well was completely removed. If necessary, the 1× rinsing buffer could be allowed to stay in the micro-well plate for up to 30 minutes so that the substrate mixed solution could be prepared during such time period.
13) The substrate mixed solution should be prepared just before each use, 10 μl of the substrate mixed solution was added to each well and the micro-well plate was sealed with tin-foil and incubated on the micro-well plate oscillation instrument at room temperature for 10 minutes.
14) 10 μl of stop solution was added to each well and mixed slightly (5-10 seconds) on the micro-well plate oscillation instrument.
15) The corresponding ELISA-One filter group was assembled and used to read the fluorescence signal intensity.
For orientation: In an ELISA, binding on a coated surface is turned into a signal by an enzyme label.

The inhibition is the relative decrease from the control value, in per cent. As usually defined, the IC50 is the concentration that gives 50% inhibition. As to `COc1ncc(-c2ccc3ncc(N)c(=O)n3c2)cc1NS(=O)(=O)c1ccc(F)cc1F` [compound 87, N-(5-(3-amino-4-oxo-4H-pyrido[1,2-a]pyrimidin-7-yl)-2-methoxpyridin-3-yl)-2,4-difluorobenzsulfamide], the inhibition at 0.5 µM reads like this: (read-out: % inhibition AKT) 92.1%; (read-out: % inhibition p70s6k) 88.1%. For the same compound, the half-inhibitory concentration (IC50) (read-out: IC50 p-AKT) was no more than 50 nM and the IC50 (read-out: IC50 p-p70S6K) was 100 to 250 nM.

`COc1ncc(-c2ccc3ncc(N)c(=O)n3c2)cc1NS(=O)(=O)c1ccc(F)cc1Cl` [compound 88]: the inhibition at 0.5 µM is 94.8% (read-out: % inhibition AKT) and 91% (read-out: % inhibition p70s6k). Also, the IC50 reads like this: (read-out: IC50 p-AKT) no more than 50 nM; (read-out: IC50 p-p70S6K) 100 to 250 nM.

As to `COc1ncc(-c2ccc3ncc(N)c(=O)n3c2)cc1NS(=O)(=O)c1ccc(F)cc1C` [compound 89], the inhibition at 0.5 µM (read-out: % inhibition AKT) was determined as 93% and the inhibition at 0.5 µM (read-out: % inhibition p70s6k) amounted to 88.1%. Besides, the IC50 was no more than 50 nM (read-out: IC50 p-AKT) and 100 to 250 nM (read-out: IC50 p-p70S6K).

Regarding `COc1ncc(-c2ccc3ncc(N)c(=O)n3c2)cc1NS(=O)(=O)c1ccccc1F` [compound 90], the inhibition at 0.5 µM came out at 92.7% (read-out: % inhibition AKT) and 87.9% (read-out: % inhibition p70s6k). Besides, the IC50 reads like this: (read-out: IC50 p-AKT) no more than 50 nM; (read-out: IC50 p-p70S6K) 100 to 250 nM.

On to `COc1ncc(-c2ccc3ncc(N)c(=O)n3c2)cc1NS(=O)(=O)c1ccccc1Cl` [compound 91], for which the inhibition at 0.5 µM is 94.6% (read-out: % inhibition AKT) and 89.2% (read-out: % inhibition p70s6k). In addition, the half-inhibitory concentration (IC50) runs as follows: (read-out: IC50 p-AKT) no more than 50 nM; (read-out: IC50 p-p70S6K) 50 to 100 nM.

In the case of `COc1ncc(-c2ccc3ncc(N)c(=O)n3c2)cc1NS(=O)(=O)c1sccc1C` [compound 92], the half-inhibitory concentration (IC50) (read-out: IC50 p-AKT) is no more than 50 nM.

In the case of `COc1ncc(-c2ccc3ncc(N)c(=O)n3c2)cc1NS(=O)(=O)c1sc(C)nc1C` [compound 93], for the setting “read-out: IC50 p-AKT”, the half-inhibitory concentration (IC50) was no more than 50 nM.

Take `COc1ncc(-c2ccc3ncc(N)c(=O)n3c2)cc1NS(=O)(=O)c1sc(N)nc1C` [compound 94]: the IC50 (read-out: IC50 p-AKT) was no more than 50 nM.

Take `CNc1cnc2ccc(-c3cnc(OC)c(NS(=O)(=O)c4ccc(F)cc4F)c3)cn2c1=O` [compound 95, 2,4-difluoro-N-(2-methoxy-5-(3-(methylamino)-4-oxo-4H-pyrido[1,2-a]pyrimidin-7-yl)pyridin-3-yl)benzulfamide]: the IC50 (read-out: IC50 p-AKT) was in the range of 100 to 250 nM.

In the case of `COc1ncc(-c2ccc3ncc(N(C)C)c(=O)n3c2)cc1NS(=O)(=O)c1ccc(F)cc1F` [compound 96], the 50% inhibitory concentration (IC50) (read-out: IC50 p-AKT) was greater than 250 nM.

For `COc1ncc(-c2ccc3ncc(NC(C)=O)c(=O)n3c2)cc1NS(=O)(=O)c1ccc(F)cc1F` [compound 97], the IC50 (read-out: IC50 p-AKT) is greater than 250 nM.

On to `COc1ncc(-c2ccc3ncc(NS(C)(=O)=O)c(=O)n3c2)cc1NS(=O)(=O)c1ccc(F)cc1F` [compound 98], for which the half-inhibitory concentration (IC50) (read-out: IC50 p-AKT) is greater than 250 nM.

`COCCNc1cnc2ccc(-c3cnc(OC)c(NS(=O)(=O)c4sc(C)nc4C)c3)cn2c1=O` [compound 99]: the IC50 (read-out: IC50 p-AKT) was no more than 50 nM.

`COc1ncc(-c2ccc3ncc(O)c(=O)n3c2)cc1NS(=O)(=O)c1ccc(F)cc1F` [compound 101, 2,4-difluoro-N-(5-(3-hydroxy-4-oxo-4H-pyrido[1,2-a]pyrimidin-7-yl)-2-methoxypyridin-3-yl) benzsulfamide]: the inhibition at 0.25 µM is, setting by setting: (read-out: % inhibition AKT) 25%; (read-out: % inhibition p70s6k) 8.6%.

With `COc1ncc(-c2ccc3ncc(O)c(=O)n3c2)cc1NS(=O)(=O)c1ccccc1Cl` [compound 102], the inhibition at 0.25 µM was 37.3% (read-out: % inhibition AKT) and 18.2% (read-out: % inhibition p70s6k).

For `COc1ncc(-c2ccc3ncc(OC)c(=O)n3c2)cc1NS(=O)(=O)c1ccc(F)cc1F` [compound 103, 2,4-difluoro-N-(2-methoxy-5-(3-methoxy-4-oxo-4H-pyrido[1,2-a]pyrimidin-7-yl)pyridin-3-yl) benzsulfamide], the inhibition at 0.5 µM was 94.5% (read-out: % inhibition AKT) and 89.4% (read-out: % inhibition p70s6k). The half-inhibitory concentration (IC50) runs as follows: (read-out: IC50 p-AKT) no more than 50 nM; (read-out: IC50 p-p70S6K) 50 to 100 nM.

With `COc1ncc(-c2ccc3ncc(OC)c(=O)n3c2)cc1NS(=O)(=O)c1ccccc1Cl` [compound 105], the inhibition at 0.5 µM (read-out: % inhibition AKT) stood at 95.4% and the inhibition at 0.5 µM (read-out: % inhibition p70s6k) was determined as 90.3%. The IC50 was no more than 50 nM (read-out: IC50 p-AKT) and no more than 50 nM (read-out: IC50 p-p70S6K).

Turning to `COc1ncc(-c2ccc3ncc(OC)c(=O)n3c2)cc1NS(=O)(=O)c1ccc(F)cc1C` [compound 106], the inhibition at 0.5 µM is, setting by setting: (read-out: % inhibition AKT) 96.2%; (read-out: % inhibition p70s6k) 91.8%. Moreover, the IC50 by setting is: (read-out: IC50 p-AKT) no more than 50 nM; (read-out: IC50 p-p70S6K) 50 to 100 nM.

Regarding `COc1ncc(-c2ccc3ncc(OC)c(=O)n3c2)cc1NS(=O)(=O)c1ccccc1F` [compound 107], the inhibition at 0.5 µM reads like this: (read-out: % inhibition AKT) 94.5%; (read-out: % inhibition p70s6k) 91%. The IC50 is no more than 50 nM (read-out: IC50 p-AKT) and 50 to 100 nM (read-out: IC50 p-p70S6K).

In the case of `COc1ncc(-c2ccc3ncc(OC)c(=O)n3c2)cc1NS(=O)(=O)c1ccc(Cl)s1` [compound 108], the inhibition at 0.25 µM turned out to be 92.4% (read-out: % inhibition AKT) and 82.5% (read-out: % inhibition p70s6k). For the same compound, the IC50 was no more than 50 nM (read-out: IC50 p-AKT) and no more than 50 nM (read-out: IC50 p-p70S6K).

For `COc1ncc(-c2ccc3ncc(OC)c(=O)n3c2)cc1NS(=O)(=O)c1sc(N)nc1C` [compound 109], the 50% inhibitory concentration (IC50) (read-out: IC50 p-AKT) is no more than 50 nM.

Take `COc1ncc(-c2ccc3ncc(OC)c(=O)n3c2)cc1NS(=O)(=O)c1sccc1C` [compound 110]: the IC50 (read-out: IC50 p-AKT) lay in the range of 50 to 100 nM.

Consider `COc1ncc(-c2ccc3ncc(OC)c(=O)n3c2)cc1NS(=O)(=O)c1sc(C)nc1C` [compound 111], for which the 50% inhibitory concentration (IC50) (read-out: IC50 p-AKT) was no more than 50 nM.

For the compound `COc1ncc(-c2cn3c(=O)ccnc3cc2F)cc1NS(=O)(=O)c1ccc(F)cc1F` [compound 112], the inhibition at 0.5 µM came to 40.8% (read-out: % inhibition AKT) and 3.6% (read-out: % inhibition p70s6k).

For the compound `COc1ncc(-c2cn3c(=O)ccnc3cc2F)cc1NS(=O)(=O)c1ccccc1F` [compound 113], the inhibition at 0.5 µM reads like this: (read-out: % inhibition AKT) -7.6%; (read-out: % inhibition p70s6k) 4.6%.

`COc1ncc(-c2cn3c(=O)ccnc3cc2F)cc1NS(=O)(=O)c1c(F)cccc1F` [compound 114]: the inhibition at 0.5 µM (read-out: % inhibition AKT) amounted to 53% and the inhibition at 0.5 µM (read-out: % inhibition p70s6k) is -1.2%.

Turning to `COc1ncc(-c2cn3c(=O)ccnc3cc2F)cc1NS(=O)(=O)c1cccc(F)c1` [compound 115], the inhibition at 0.5 µM (read-out: % inhibition AKT) worked out at 43.6% and the inhibition at 0.5 µM (read-out: % inhibition p70s6k) turned out to be 6.5%.

For `COc1ncc(-c2cn3c(=O)ccnc3cc2F)cc1NS(=O)(=O)c1cc(F)ccc1F` [compound 116], the inhibition at 0.5 µM is 52.3% (read-out: % inhibition AKT) and 6.7% (read-out: % inhibition p70s6k).

As for `COc1ncc(-c2cn3c(=O)ccnc3cc2F)cc1NS(=O)(=O)c1ccc(F)cc1Cl` [compound 117], the inhibition at 0.5 µM reads like this: (read-out: % inhibition AKT) 63.7%; (read-out: % inhibition p70s6k) 16.6%.

Consider `COc1ncc(-c2cn3c(=O)ccnc3cc2F)cc1NS(=O)(=O)c1ccc(C(F)(F)F)cc1` [compound 118], for which the inhibition at 0.5 µM is 27.8% (read-out: % inhibition AKT) and 11.5% (read-out: % inhibition p70s6k).

In the case of `COc1ncc(-c2cn3c(=O)ccnc3cc2C)cc1NS(=O)(=O)c1ccc(F)cc1F` [compound 121, 2,4-difluoro-N-(2-methoxy-5-(8-methyl-4-oxo-4H-pyrido[1,2-a]pyrimidin-7-yl)pyridin-3-yl)benzsulfamide], the inhibition at 0.5 µM runs as follows: (read-out: % inhibition AKT) -27.1%; (read-out: % inhibition p70s6k) -2.2%.

In the case of `COc1ncc(-c2cn3c(=O)ccnc3cc2C)cc1NS(=O)(=O)c1ccccc1Cl` [compound 122], the inhibition at 0.5 µM was -26.6% (read-out: % inhibition AKT) and 1.2% (read-out: % inhibition p70s6k).

In the case of `COc1ncc(-c2cn3c(=O)ccnc3cc2C)cc1NS(=O)(=O)c1ccccc1F` [compound 123], the inhibition at 0.5 µM is -82.1% (read-out: % inhibition AKT) and 6.7% (read-out: % inhibition p70s6k).
